IC50 data for 14 compounds are collected here from patent US10821115B2, “Compounds that inhibit Mcl-1 protein” (priority 2017, dated 2020).

Where two headings read alike, the source gives them in different places.

Assay [1] deals with recombinant human Mcl-1 (residues 171-327) / Bim interaction (Homo sapiens (Human), UniProt Q07820). In words: biochemical. In kind it is binding. The conditions noted are these: read-out: Mcl-1 HTRF IC50.
Experimental: The inhibition of the Mcl-1/Bim interaction was measured using a time-resolved fluorescence resonance energy transfer (TR-FRET) assay. […] The TR-FRET assay was conducted in a 384-well white OptiPlate™ (PerkinElmer, Waltham, Mass.) in a total volume of 40 μL. The reaction mixture contained 0.1 nM Mcl-1(171-327), 0.05 nM biotin-Bim (51-76), 0.05 nM LANCE® Eu-W1024 Anti-6×His (PerkinElmer), 0.072 nM Streptavidin-Xlent (Cisbio, Bedford, Mass.), and serially diluted test compounds in the binding buffer of 20 mM Hepes, pH 7.5, 150 mM NaCl, 0.016 mM Brij®35, and 1 mM dithiothreitol. Test compounds were pre-incubated with Mcl-1(171-327) and biotin-Bim (51-76) for 60 min before addition of the detection mixture (LANCE® Eu-W1024 Anti-6×His and Streptavidin-Xlent). The reaction plates were further incubated overnight and then were read on an Envision® multimode reader (PerkinElmer). Fluorescence signals were measured at 620 nm (40-nm bandwidth) and 665 nm (7.5-nm bandwidth) with a 60 is delay after excitation at 320 nm (75-nm bandwidth). The signal ratio at 665/620 nm corresponded to the Mcl-1/Bim interaction and was used in all data analyses. The IC50 values of test compounds were determined from duplicate data by analyzing competition curves using a four-parameter sigmoidal model in GraphPad Prism (GraphPad Software, San Diego, Calif.) or in Genedata Screener® (Genedata, Basel, Switzerland).
For assay [2], the system named is human multiple myeloma cell line, OPM-2. In words: Cell viability assay (OPM-2 10 FBS), CellTiter-Glo. The format is cell-based. In short, it runs like this:
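IC50 values come from 4-parameter logistic fits of luminescence signals reflecting cell viability. Treatment lasted 16 h at 37 °C in complete medium with 10% FBS, starting from 3000 cells/well.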
Background: Cellular ATP, detected with luciferase, serves as a proxy for viable cell number.

[3] abbreviates: TR-FRET, Mcl-1(171-327) / biotin-Bim (51-76).
[4] abbreviates: Homo sapiens, OPM-2, 16 h, read-out: OPM-2 10% FBS IC50 IP, OPM-2 cells, 10% FBS, 16 h, CellTiter-Glo.
The mark [5] stands for this setting: read-out: OPM-2 10% FBS IC50 IP, OPM-2 cells, 10% FBS, 16 h, CellTiter-Glo.
The mark [6] stands for this setting: 0.1 nM Mcl-1(171-327), 0.05 nM biotin-Bim (51-76).
Setting [7] is: Homo sapiens, OPM-2, 16 h, read-out: OPM-2 10% FBS IC50 IP, OPM-2 cells, 10% FBS, 16 h incubation.

Sequence of recombinant human Mcl-1 (residues 171-327) / Bim interaction (Q07820 171-327): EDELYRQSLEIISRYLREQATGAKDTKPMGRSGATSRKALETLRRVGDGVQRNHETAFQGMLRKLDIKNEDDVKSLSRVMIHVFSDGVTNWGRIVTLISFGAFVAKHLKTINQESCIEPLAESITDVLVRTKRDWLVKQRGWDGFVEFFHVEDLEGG

For orientation: IC50 means the concentration needed to halve the response being measured. As for `COCCC[C@]1(O)/C=C/C[C@H](C)[C@@H](C)S(=O)(=O)NC(=O)c2ccc3c(c2)N(C[C@@H]2CC[C@H]21)C[C@@]1(CCCc2cc(Cl)ccc21)CO3` [Example 100160, (1S,3′R,6′R,7′S,8′E,11′S,12′R)-6-chloro-7′-hydroxy-7′-(3-methoxypropyl)-11′,12′-dimethyl-3,4-dihydro-2H,15′H-spiro[naphthalene-1,22′-[20]oxa[13]thia[1,14]diazatetracyclo [14.7.2.0~3,6~.0~19,24~]pentacosa[8,16,18,24]tetraen]-15′-one 13′,13′-dioxide], the IC50 was found to be 0.169 nM in assay [1] (setting [3]) and 78 nM in assay [2] (setting [4]).
For `C=CCC[C@@]1(O)/C=C/C[C@H](C)[C@@H](C)S(=O)(=O)NC(=O)c2ccc3c(c2)N(C[C@@H]2CC[C@H]21)C[C@@]1(CCCc2cc(Cl)ccc21)CO3` [Example 100158, (1S,3′R,6′R,7′R,8′E,11′S,12′R)-7′-(3-buten-1-yl)-6-chloro-7′-hydroxy-11′,12′-dimethyl-3,4-dihydro-2H,15′H-spiro[naphthalene-1,22′-[20]oxa[13]thia[1,14]diazatetracyclo [14.7.2.0~3,6~.0~19,24~]pentacosa[8,16,18,24]tetraen]-15′-one 13′,13′-dioxide], the IC50 amounted to 0.298 nM in assay [1] (setting [3]) and 260 nM in assay [2] (setting [5]).
Consider `CO[C@@]1(Cc2ncccc2C)/C=C/C[C@H](C)[C@@H](C)S(=O)(=O)NC(=O)c2ccc3c(c2)N(C[C@@H]2CC[C@H]21)C[C@@]1(CCCc2cc(Cl)ccc21)CO3` [Example 100542, (1S,3′R,6′R,7′S,8′E,11′S,12′R)-6-chloro-7′-methoxy-11′,12′-dimethyl-7′-((3-methyl-2-pyridinyl)methyl)-3,4-dihydro-2H,15′H-spiro[naphthalene-1,22′-[20]oxa[13]thia[1,14]diazatetracyclo [14.7.2.0~3,6~.0~19,24~]pentacosa[8,16,18,24]tetraen]-15′-one 13′,13′-dioxide], for which the IC50 was found to be 0.229 nM in assay [1] (setting [3]) and 902 nM in assay [2] (setting [4]).
The matching figures for `C[C@@H]1[C@@H](C)C/C=C/[C@@](O)(COS(C)(=O)=O)[C@@H]2CC[C@H]2CN2C[C@@]3(CCCc4cc(Cl)ccc43)COc3ccc(cc32)C(=O)NS1(=O)=O` [Example 100335, ((1S,3′R,6′R,7′S,8′E,11′S,12′R)-6-chloro-7′-hydroxy-11′,12′-dimethyl-13′,13′-dioxido-15′-oxo-3,4-dihydro-2H-spiro[naphthalene-1,22′-[20]oxa[13]thia[1,14]diazatetracyclo [14.7.2.0~3,6~.0~19,24~]pentacosa[8,16,18,24]tetraen]-7′-yl)methyl methanesulfonate]: 0.319 nM and 165 nM.
As to `C[C@@H]1[C@@H](C)C/C=C/[C@@](O)(CC(=O)N(C)C)[C@@H]2CC[C@H]2CN2C[C@@]3(CCCc4cc(Cl)ccc43)COc3ccc(cc32)C(=O)NS1(=O)=O` [Example 100078, 2-((1S,3′R,6′R,7′S,8′E,11′S,12′R)-6-chloro-7′-hydroxy-11′,12′-dimethyl-13′,13′-dioxido-15′-oxo-3,4-dihydro-2H-spiro[naphthalene-1,22′-[20]oxa[13]thia[1,14]diazatetracyclo [14.7.2.0~3,6~.0~19,24~]pentacosa[8,16,18,24]tetraen]-7′-yl)-N,N-dimethylacetamide], the IC50 in assay [1] (setting [3]) worked out at 0.409 nM; in assay [2] (setting [5]) it was 2720 nM.
`CO[C@@]1(CN2CCN3CCOC[C@@H]3C2)/C=C/C[C@H](C)[C@@H](CCO)S(=O)(=O)NC(=O)c2ccc3c(c2)N(C[C@@H]2CC[C@H]21)C[C@@]1(CCCc2cc(Cl)ccc21)CO3` [Example 346, (1S,3′R,6′R,7′S,8′E,11′S,12′R)-6-Chloro-7′-((9aS)-hexahydropyrazino[2,1-c][1,4]oxazin-8(1H)-ylmethyl)-12′-(2-hydroxyethyl)-7′-methoxy-11′-methyl-3,4-dihydro-2H, 15′H-spiro[naphthalene-1,22′-[20]oxa[13]thia[1,14]diazatetracyclo[14.7.2.0-3,6˜.0˜19,24˜]pentacosa[8,16,18,24]tetraen]-15′-one 13′,13′-dioxide]: the IC50 was found to be 0.062 nM in assay [1] (setting [6]) and 66 nM in assay [2] (setting [7]).
On to `COCCN(C)S(=O)(=O)C[C@]1(O)CCC[C@H](C)[C@@H](C)S(=O)(=O)NC(=O)c2ccc3c(c2)N(C[C@@H]2CC[C@H]21)C[C@@]1(CCCc2cc(Cl)ccc21)CO3` [Example 100165, 1-((1S,3′R,6′R,7′S,11′S,12′R)-6-chloro-7′-hydroxy-11′,12′-dimethyl-13′,13′-dioxido-15′-oxo-3,4-dihydro-2H-spiro[naphthalene-1,22′-[20]oxa[13]thia[1,14]diazatetracyclo [14.7.2.0~3,6~.0~19,24~]pentacosa[16,18,24]trien]-7′-yl)-N-(2-methoxyethyl)-N-methylmethanesulfonamide], for which the IC50 in assay [1] (setting [3]) amounted to 0.455 nM; in assay [2] (setting [4]), 579 nM.
As to `C[C@@H]1[C@@H](C)C/C=C/[C@](O)(c2cccnc2)[C@@H]2CC[C@H]2CN2C[C@@]3(CCCc4cc(Cl)ccc43)COc3ccc(cc32)C(=O)NS1(=O)=O` (single isomer, unassigned) [Example 100183], the IC50 is 1.34 nM in assay [1] (setting [3]) and 2240 nM in assay [2] (setting [4]).
Turning to `C[C@@H]1[C@@H](C)CCC[C@@]2(OCCS2)[C@@H]2CC[C@H]2CN2C[C@@]3(CCCc4cc(Cl)ccc43)COc3ccc(cc32)C(=O)NS1(=O)=O` [Example 100115, (1S,3′R,6′R,7′S,11′S,12′R)-6-chloro-11′,12′-dimethyl-3,4-dihydro-2H,15′H-dispiro[naphthalene-1,22′-[20]oxa[13]thia[1,14]diazatetracyclo [14.7.2.0~3,6~.0~19,24~]pentacosa[16,18,24]triene-7′,2″-[1,3]oxathiolan]-15′-one 13′,13′-dioxide], the IC50 in assay [1] (setting [3]) came to 4.49 nM; in assay [2] (setting [4]), 2840 nM.
As to `COC[C@@H]1[C@@H](C)C/C=C/[C@](CN2CCN3CCOC[C@@H]3C2)(OC)[C@@H]2CC[C@H]2CN2C[C@@]3(CCCc4cc(Cl)ccc43)COc3ccc(cc32)C(=O)NS1(=O)=O` [Example 168, (1S,3′R,6′R,7′S,8′E,11′S,12′S)-6-chloro-7′-((9aS)-hexahydropyrazino[2,1-c][1,4]oxazin-8(1H)-ylmethyl)-7′-methoxy-12′-(methoxymethyl)-11′-methyl-3,4-dihydro-2H,15′H-spiro[naphthalene-1,22′-[20]oxa[13]thia[1,14]diazatetracyclo [14.7.2.0~3,6~.0~19,24~]pentacosa[8,16,18,24]tetraen]-15′-one 13′,13′-dioxide], the results for the IC50 in assay [1] (setting [6]) and in assay [2] (setting [7]) were 0.138 nM and 52 nM, respectively.
In the case of `CO[C@@]1(CN2CC(N3CCOCC3)C2)/C=C/C[C@H](C)[C@@H](C)S(=O)(=O)NC(=O)c2ccc3c(c2)N(C[C@@H]2CC[C@H]21)C[C@@]1(CCCc2cc(Cl)ccc21)CO3` [Example 258, (1S,3′R,6′R,7′S,8′E,11′S,12′R)-6-chloro-7′-methoxy-11′,12′-dimethyl-7′-((3-(4-morpholinyl)-1-azetidinyl)methyl)-3,4-dihydro-2H,15′H-spiro[naphthalene-1,22′-[20]oxa[13]thia[1,14]diazatetracyclo [14.7.2.0~3,6~.0~19,24~]pentacosa[8,16,18,24]tetraen]-15′-one 13′,13′-dioxide], the IC50 in assay [1] (setting [6]) turned out to be 0.069 nM; in assay [2] (setting [7]), 95 nM.
Consider `C[C@@H]1[C@@H](C)CCC[C@](CO)(OCCN2CCOCC2)[C@@H]2CC[C@H]2CN2C[C@@]3(CCCc4cc(Cl)ccc43)COc3ccc(cc32)C(=O)NS1(=O)=O` [Example 100284, (1S,3′R,6′R,7′S,11′S,12′R)-6-chloro-7′-(hydroxymethyl)-11′,12′-dimethyl-7′-(2-(4-morpholinyl)ethoxy)-3,4-dihydro-2H,15′H-spiro[naphthalene-1,22′-[20]oxa[13]thia[1,14]diazatetracyclo [14.7.2.0~3,6~.0~19,24~]pentacosa[16,18,24]trien]-15′-one 13′,13′-dioxide], for which the IC50 was 0.285 nM in assay [1] (setting [3]) and 396 nM in assay [2] (setting [5]).
As for `C[C@@H]1[C@@H](C)CCC[C@@](O)(c2cccnc2)[C@@H]2CC[C@H]2CN2C[C@@]3(CCCc4cc(Cl)ccc43)COc3ccc(cc32)C(=O)NS1(=O)=O` [Example 100185, (1S,3′R,6′R,7′S,11′S,12′R)-6-chloro-7′-hydroxy-11′,12′-dimethyl-7′-(3-pyridinyl)-3,4-dihydro-2H,15′H-spiro[naphthalene-1,22′-[20]oxa[13]thia[1,14]diazatetracyclo [14.7.2.0~3,6~.0~19,24~]pentacosa[16,18,24]trien]-15′-one 13′,13′-dioxide], the values for the IC50 in assay [1] and in assay [2] (setting [4]) were 8.88 nM and 5130 nM, respectively.
Turning to `C[C@@H]1[C@@H](C)C/C=C/[C@](O)(c2cncnc2)[C@@H]2CC[C@H]2CN2C[C@@]3(CCCc4cc(Cl)ccc43)COc3ccc(cc32)C(=O)NS1(=O)=O` [Example 100410, (1S,3′R,6′R,7′R,8′E,11′S,12′R)-6-chloro-7′-hydroxy-11′,12′-dimethyl-7′-(5-pyrimidinyl)-3,4-dihydro-2H,15′H-spiro[naphthalene-1,22′-[20]oxa[13]thia[1,14]diazatetracyclo [14.7.2.0~3,6~.0~19,24~]pentacosa[8,16,18,24]tetraen]-15′-one 13′,13′-dioxide], the values for the IC50 in assay [1] (setting [3]) and in assay [2] (setting [4]) were 0.127 nM and 297 nM, respectively.
